Laboratory results reported in article PMC6199744, “Development of Chemical Proteomics for the Folateome and Analysis of the Kinetoplastid Folateome” (ACS Infectious Diseases, 2018).
Where two headings read alike, the source gives them in different places.

Tests used:
[1] = target: PTERIDINE REDUCTASE (TB927.8.2210) (Trypanosoma brucei brucei, UniProt O76290); assay: Multitargeted bead mixture competition; type: binding, T. brucei; conditions: protein PTERIDINE REDUCTASE (CZT00009056.1); vehicle control = 1
[2] = target: DIHYDROFOLATE REDUCTASE-T[…] (TB427.07.5480) (Trypanosoma brucei brucei, UniProt Q27783); assay: Multitargeted bead mixture competition; type: binding; conditions: protein TB427.07.5480 DIH[…]-T[…]; vehicle control = 1
[3] = target: GLYCERALDEHYDE 3-PHOSPHATE DEHYDROGENASE, GLYCOSOM (TB427.06.4300) (Trypanosoma brucei brucei, UniProt P22512); assay: Multitargeted bead mixture competition; type: binding, T. brucei; conditions: protein TB427.06.4300 GLYCERALDEHYDE 3-PHOSPHATE DEHYDROGENASE, GLYCOSOMAL; vehicle control = 1
[4] = system: NGG1 INTERACTING FACTOR 3-LIKE (Tb427tmp.02.5000); type: binding; conditions: vehicle control = 1
[5] = system: IRON/ASCORBATE OXIDOREDUCTASE FAMILY PROTEIN, PUTA (Tb427.02.6180); assay: Multitargeted bead mixture competition; type: binding, T. brucei; conditions: PUTATIVE, vehicle control = 1
[6] = target: T1, HeLa cell extract proteins (Homo sapiens, UniProt P61457); type: binding; conditions: HeLa; captured protein PCBD1
T1 construct: endogenous in cells; host or cells: HeLa cell extract
T1 sequence (P61457 1-104): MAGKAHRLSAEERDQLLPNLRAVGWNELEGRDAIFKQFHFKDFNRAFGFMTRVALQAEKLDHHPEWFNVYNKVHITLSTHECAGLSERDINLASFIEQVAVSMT

DHFR-TS = DHFR-TS (Leishmania major, UniProt P07382); type: binding; conditions: protein LMJF.06.0860, DIH[…]-T[…]
[7] = system: dynein associated protein (Tb09.211.4920); assay: Multitargeted bead mixture competition; type: binding, T. brucei; conditions: protein TB09.211.4920 DYNEIN-ASSOCIATED PROTEIN, PUTATIVE; vehicle control = 1
[8] = target: variant surface glycoprotein 221 (VSM2.TRYBB) (Trypanosoma brucei brucei, UniProt P26332); type: binding, T. brucei; conditions: protein VSM2_TRYBB VARIANT SURFACE GL[…] 1.2; vehicle control = 1
[9] = system: methylthioadenosine phosphorylase (LmjF.05.0830); assay: Multitargeted bead mixture competition; type: binding, Leishmania; conditions: protein LMJF.05.0830 METHYLTHIOADENOSINE PHOSPHORYLASE, PUTATIVE
[10] = target: T2, MTHF complex (DHCH protein in humans) (Homo sapiens, UniProt P11586); assay: Multitargeted bead mixture competition, HeLa cell extract; type: binding; conditions: HeLa; captured protein MTHFD1 (105 KDA PROTEIN.)
T2 sequence (P11586 1-935): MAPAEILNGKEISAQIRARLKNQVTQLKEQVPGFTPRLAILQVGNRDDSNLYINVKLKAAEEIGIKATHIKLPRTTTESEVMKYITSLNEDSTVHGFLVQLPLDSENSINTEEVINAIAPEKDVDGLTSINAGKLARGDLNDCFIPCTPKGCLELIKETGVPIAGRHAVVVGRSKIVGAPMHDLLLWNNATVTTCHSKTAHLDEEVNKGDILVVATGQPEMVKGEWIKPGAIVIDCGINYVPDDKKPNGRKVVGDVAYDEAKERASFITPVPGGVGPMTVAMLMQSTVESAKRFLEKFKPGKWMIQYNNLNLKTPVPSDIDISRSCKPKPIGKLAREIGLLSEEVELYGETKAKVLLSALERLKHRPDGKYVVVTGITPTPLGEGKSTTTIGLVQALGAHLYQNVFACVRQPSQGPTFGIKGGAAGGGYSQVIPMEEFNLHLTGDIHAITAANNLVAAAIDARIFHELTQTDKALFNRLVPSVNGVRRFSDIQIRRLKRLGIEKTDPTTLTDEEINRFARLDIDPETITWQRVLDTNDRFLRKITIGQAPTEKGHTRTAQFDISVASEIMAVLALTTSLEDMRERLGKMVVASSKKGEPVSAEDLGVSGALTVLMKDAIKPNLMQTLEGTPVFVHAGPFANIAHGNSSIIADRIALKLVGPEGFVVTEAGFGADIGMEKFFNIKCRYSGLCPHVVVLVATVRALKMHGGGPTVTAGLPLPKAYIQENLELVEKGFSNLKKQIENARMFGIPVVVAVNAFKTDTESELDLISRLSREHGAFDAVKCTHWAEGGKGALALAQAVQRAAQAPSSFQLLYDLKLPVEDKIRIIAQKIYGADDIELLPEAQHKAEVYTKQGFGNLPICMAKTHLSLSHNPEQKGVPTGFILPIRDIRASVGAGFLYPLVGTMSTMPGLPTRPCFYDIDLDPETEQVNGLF

methylene-THF-reductase = methylene-THF-reductase (Homo sapiens, UniProt P42898); assay: as above; type: binding; conditions: protein MTHFR; HeLa
Sequence of methylene-THF-reductase (P42898 whole entry): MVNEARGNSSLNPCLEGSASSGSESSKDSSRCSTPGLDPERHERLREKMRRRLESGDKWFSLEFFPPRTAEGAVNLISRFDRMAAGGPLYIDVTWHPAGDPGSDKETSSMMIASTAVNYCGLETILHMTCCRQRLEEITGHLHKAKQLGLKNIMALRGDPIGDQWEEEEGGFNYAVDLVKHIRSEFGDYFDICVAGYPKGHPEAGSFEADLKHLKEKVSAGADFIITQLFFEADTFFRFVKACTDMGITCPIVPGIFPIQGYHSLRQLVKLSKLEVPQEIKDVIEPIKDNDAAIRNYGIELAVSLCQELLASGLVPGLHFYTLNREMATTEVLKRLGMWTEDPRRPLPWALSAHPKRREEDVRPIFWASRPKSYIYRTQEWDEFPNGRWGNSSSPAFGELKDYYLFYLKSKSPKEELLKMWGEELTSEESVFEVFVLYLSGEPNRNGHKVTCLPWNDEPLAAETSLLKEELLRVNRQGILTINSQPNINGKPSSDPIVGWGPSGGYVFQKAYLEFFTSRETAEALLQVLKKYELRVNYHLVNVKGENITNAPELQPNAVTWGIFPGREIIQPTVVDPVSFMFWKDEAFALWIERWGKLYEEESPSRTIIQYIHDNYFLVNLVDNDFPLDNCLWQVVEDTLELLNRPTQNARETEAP

PTR1 = target: T3, PTR1 (Leishmania major, UniProt Q01782); type: binding; set-up: endogenous in cells; host or cells: L. major Friedlin promastigote lysate; conditions: vs vehicle control; protein LMJF.23.0270 PTERIDINE REDUCTASE 1
T3 sequence (Q01782 1-288): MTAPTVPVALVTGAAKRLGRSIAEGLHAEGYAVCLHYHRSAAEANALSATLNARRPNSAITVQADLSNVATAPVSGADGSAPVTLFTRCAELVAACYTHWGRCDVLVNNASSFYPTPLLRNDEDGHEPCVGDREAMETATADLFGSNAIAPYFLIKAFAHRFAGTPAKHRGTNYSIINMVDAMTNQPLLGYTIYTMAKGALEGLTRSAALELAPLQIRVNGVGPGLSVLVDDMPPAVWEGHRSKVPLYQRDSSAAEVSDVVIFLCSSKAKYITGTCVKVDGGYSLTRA

NCCOCCOCC(=O)Nc1nc2ncc(CNc3ccc(C(=O)NC(CCC(=O)O)C(=O)O)cc3)nc2c(=O)[nH]1 (centres unmarked) [compound 6]
fold change vs vehicle control [1]: 0.49 | fold change vs vehicle control [2]: 1.09 | fold change [3]: 0.92 | fold change ([4]; protein TB427TMP.02.5000 NGG1 INTERACTING FACTOR 3-LIKE): 0.68 | fold change ([5]; protein TB427.02.6180 IRON/ASCORBATE OXIDOREDUCTASE FAMILY PROTEIN): 0.28 | fold changes relative to vehicle control [6]: 1.58 | fold change relative to vehicle control (DHFR-TS): 1.19 | fold change [7]: 0.86 | fold change [8]: 2.16 | fold change vs vehicle control [9]: 0.96 | fold changes relative to vehicle control [10]: 0.92 | fold changes relative to vehicle control (methylene-THF-reductase): 0.84 | fold change (PTR1): 0.98

NCCCNc1ccc(C(=O)NC(CCC(=O)O)C(=O)O)cc1 (centres unmarked) [compound 7]
fold change vs vehicle control [1]: 1.03 | fold change vs vehicle control [2]: 0.98 | fold change [3]: 1.07 | fold change ([4]; protein TB427TMP.02.5000 NGG1 I[…] 3-LIKE): 1.16 | fold change ([5]; protein TB427.02.6180 IRON/ASCORBATE OXID[…] PROTEIN): 1.02 | fold changes relative to vehicle control [6]: 1.48 | fold change relative to vehicle control (DHFR-TS): 1.02 | fold change [7]: 0.68 | fold change [8]: 0.81 | fold change vs vehicle control [9]: 1.02 | fold changes relative to vehicle control [10]: 1 | fold changes relative to vehicle control (methylene-THF-reductase): 1 | fold change (PTR1): 1.02
